Assay results reported in patent US8383681B2, “Droxidopa and pharmaceutical composition thereof for the treatment of mood disorders, sleep disorders or attention deficit disorders” (Chelsea Therapeutics, Inc., priority 2008, dated 2013).
“Also recorded” adds a separate entry of the source.

system: male CD-1 mice; assay: murine Forced Swim Test (FST), a mouse model of depression; format: in vivo; conditions: intraperitoneal, doses per Table 1, ANOVA followed by T-test, versus vehicle
Procedure: The effect of droxidopa, alone or in combination with other drugs, in the treatment of depression was evaluated using the murine Forced Swim Test (FST), a mouse model of depression commonly used to evaluate antidepressive drugs. Depression (i.e., “learned helplessness” as evaluated by the FST model) was measured using the method of Porsolt et al., Arch. Int. Pharmacodyn. (1977), 229: 327-336. Briefly, male CD-1 mice weighing 22 g (±2 g) were fasted overnight prior to testing. The mice were randomized into 11 groups of 10 mice each. Mice in each group were treated with the vehicle alone, a drug, or a drug composition as outlined in Table 1 and returned to their respective groups.
In Table 1, the vehicle—2% TWEEN® 80 (i.e., polysorbate 80)—was included in all test compositions. One hour after dosing, the test mice were placed in a 1 liter volume glass beaker (height: 14.5 cm, diameter: 10.5 cm) containing water 6 cm in height at room temperature (22 to 24° C.) for 6 minutes. The duration of animal immobility within the last 4 minutes was then recorded. A mouse was judged to be immobile when it ceased struggling and remained floating in the water making only those movements necessary to keep its head above water. Data were analyzed by ANOVA for significant differences in group means, followed by T-test to distinguish statistically significant groups as appropriate.

Row | Compound | effect on length of time spent immobile / depression, in words
1 | COc1ccc(C(CN(C)C)C2(O)CCCCC2)cc1 (centres unmarked) [venlafaxine] | did not significantly decrease; also recorded: failed to decrease depression
2 | CN(C)CCC=C1c2ccccc2CCc2ccccc21 [amitriptyline] | significant decrease
3 | CNCCC(Oc1ccc(C(F)(F)F)cc1)c1ccccc1 (centres unmarked) [fluoxetine] | did not significantly decrease; also recorded: failed to decrease depression
4 | CNCCCN1c2ccccc2CCc2ccccc21 [desipramine] | did not significantly decrease; also recorded: failed to decrease depression
5 | CCN(CC)C(=O)/C(C#N)=C/c1cc(O)c(O)c([N+](=O)[O-])c1 [entacapone, (E)-2-cyano-N,N-diethyl-3-(3,4-dihydroxy-5-nitrophenyl)propenamide] | did not significantly decrease

same assay, conditions: intraperitoneal, one hour after dosing, immobility within the last 4 minutes of 6 minutes, mg/kg per Table 1: desipramine 10, entacapone 30, fluoxetine 18, venlafaxine 10, amitriptyline 10, droxidopa 400, carbidopa 20

Row | Compound | length of time the mice spent immobile (average time immobile)
6 | COc1ccc(C(CN(C)C)C2(O)CCCCC2)cc1 (centres unmarked) [venlafaxine] | 117.5 s
7 | CN(C)CCC=C1c2ccccc2CCc2ccccc21 [amitriptyline] | 60.0 s
8 | CNCCC(Oc1ccc(C(F)(F)F)cc1)c1ccccc1 (centres unmarked) [fluoxetine] | 158.2 s
9 | CNCCCN1c2ccccc2CCc2ccccc21 [desipramine] | 136.4 s
10 | CCN(CC)C(=O)/C(C#N)=C/c1cc(O)c(O)c([N+](=O)[O-])c1 [entacapone, (E)-2-cyano-N,N-diethyl-3-(3,4-dihydroxy-5-nitrophenyl)propenamide] | 129.9 s

target: T1, MAO-A (Homo sapiens, UniProt P21397); assay: not given; conditions: MAO-A versus MAO-B; cited from earlier work
T1 sequence (P21397 1-527): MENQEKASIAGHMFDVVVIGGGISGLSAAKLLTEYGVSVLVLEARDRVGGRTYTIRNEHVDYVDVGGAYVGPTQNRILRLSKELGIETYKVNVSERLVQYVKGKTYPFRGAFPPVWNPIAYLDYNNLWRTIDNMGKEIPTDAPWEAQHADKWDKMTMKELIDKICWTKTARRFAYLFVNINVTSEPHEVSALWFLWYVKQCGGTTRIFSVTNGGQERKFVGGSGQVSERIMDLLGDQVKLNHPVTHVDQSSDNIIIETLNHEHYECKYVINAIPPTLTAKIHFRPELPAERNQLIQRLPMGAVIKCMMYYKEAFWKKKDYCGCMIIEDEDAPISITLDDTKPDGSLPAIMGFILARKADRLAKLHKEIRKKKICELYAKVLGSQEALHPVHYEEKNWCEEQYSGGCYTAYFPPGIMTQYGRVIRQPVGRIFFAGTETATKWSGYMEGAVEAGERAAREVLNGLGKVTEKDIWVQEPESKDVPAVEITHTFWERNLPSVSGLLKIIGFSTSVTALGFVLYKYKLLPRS

Row | Compound | selectivity for MAO-A than MAO-B
11 | O=C(NCCN1CCOCC1)c1ccc(Cl)cc1 [moclobemide] | approximately three times more selective for MAO-A than MAO-B
